The values below come from PubChem BioAssay AID248 (DTP/NCI, 2004).

This assay has as its system L1210 leukemia ip in BDF1 mice, survival T/C. In words: NCI In Vivo Anticancer Drug Screen. Data for tumor model L1210 Leukemia (intraperitoneal) in B6D2F1 (BDF1) mice. Particulars: endpoint: mean survival time, higher = longer survival. The essentials: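 Antitumor effect is assessed in tumor-bearing animals. Survival in the compound arm is compared with a vehicle-dosed control arm and expressed as their quotient.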

The mark [1] stands for this setting: dose: 100.0 mg/kg/injection, schedule: Q04DX003 (ip), vehicle: saline with Tween-80.
The mark [2] stands for this setting: dose: 200.0 mg/kg/injection, schedule: Q04DX003 (ip), vehicle: saline with Tween-80.
The mark [3] stands for this setting: dose: 400.0 mg/kg/injection, schedule: Q04DX003 (ip), vehicle: saline with Tween-80.
Setting [4] is: dose: 100.0 mg/kg/injection, schedule: Q01DX001 (ip), vehicle: Klucel (hydroxypropylcellulose) (HPC).
The mark [5] stands for this setting: dose: 100.0 mg/kg/injection, schedule: Q01DX001 (ip), vehicle: carboxymethylcellulose (CMC).
Setting [6] is: dose: 200.0 mg/kg/injection, schedule: Q01DX001 (ip), vehicle: carboxymethylcellulose (CMC).
Setting [7] is: dose: 400.0 mg/kg/injection, schedule: Q01DX001 (ip), vehicle: carboxymethylcellulose (CMC).
Setting [8] is: dose: 25.0 mg/kg/injection, schedule: Q04DX003 (ip), vehicle: saline.
Setting [9] is: dose: 100.0 mg/kg/injection, schedule: Q04DX003 (ip), vehicle: Klucel (hydroxypropylcellulose) (HPC).
Setting [10] is: dose: 200.0 mg/kg/injection, schedule: Q04DX003 (ip), vehicle: Klucel (hydroxypropylcellulose) (HPC).
[11] abbreviates: dose: 100.0 mg/kg/injection, schedule: Q04DX003 (ip), vehicle: saline.
The mark [12] stands for this setting: dose: 200.0 mg/kg/injection, schedule: Q04DX003 (ip), vehicle: saline.
Setting [13] is: dose: 400.0 mg/kg/injection, schedule: Q04DX003 (ip), vehicle: saline.

Structures are written as SMILES. Where “and” joins values, the source holds several entries; their conditions need not be identical. Identical values can stand only once. Toxic doses and inconclusive results are not listed.

`O=NN(CCF)C(=O)NC1CCC(C(=O)O)CC1` (stereo not drawn): the T/C was 105 % of control and 106 % of control (dose: 4.0 mg/kg/injection, schedule: Q01DX001 (ip), vehicle: saline with Tween-80); 108 % of control (dose: 6.0 mg/kg/injection, schedule: Q01DX001 (ip), vehicle: saline with Tween-80); 116 % of control and 119 % of control (dose: 9.0 mg/kg/injection, schedule: Q01DX001 (ip), vehicle: saline with Tween-80); 117 % of control (dose: 13.0 mg/kg/injection, schedule: Q01DX001 (ip), vehicle: saline with Tween-80); 152 % of control (dose: 20.0 mg/kg/injection, schedule: Q01DX001 (ip), vehicle: saline with Tween-80); 263 % of control and 206 % of control (dose: 30.0 mg/kg/injection, schedule: Q01DX001 (ip), vehicle: saline with Tween-80). The T/C was 306 % of control and 432 % of control (dose: 45.0 mg/kg/injection, schedule: Q01DX001 (ip), vehicle: saline with Tween-80); 500 % of control (dose: 66.0 mg/kg/injection, schedule: Q01DX001 (ip), vehicle: saline with Tween-80).

`CC(C)(S)CNCCSC(=O)c1ccccc1`: the T/C reads like this: under setting [1], 102 % of control; under setting [2], 100 % of control; under setting [3], 92 % of control.

For the compound `Cc1nnc2ncnc(SCc3ccccc3)c2n1`, the T/C was 100 % of control (dose: 12.5 mg/kg/injection, schedule: Q01DX001 (ip), vehicle: Klucel (hydroxypropylcellulose) (HPC)); 95 % of control and 91 % of control (dose: 25.0 mg/kg/injection, schedule: Q01DX001 (ip), vehicle: Klucel (hydroxypropylcellulose) (HPC)); 93 % of control (dose: 50.0 mg/kg/injection, schedule: Q01DX001 (ip), vehicle: Klucel (hydroxypropylcellulose) (HPC)); 90 % of control under setting [4].

`Cc1c(C(=O)c2ccc3c(c2)OCO3)ccc2c1OCO2`: the T/C runs as follows: under setting [5], 100 % of control; under setting [6], 100 % of control; under setting [7], 96 % of control.

Take `c1ccn2nnc(-c3nnn4ccccc34)c2c1`: the T/C runs as follows: (dose: 100.0 mg/kg/injection, schedule: Q04DX002 (ip), vehicle: saline with Tween-80) 102 % of control; (dose: 200.0 mg/kg/injection, schedule: Q04DX002 (ip), vehicle: saline with Tween-80) 95 % of control; (dose: 400.0 mg/kg/injection, schedule: Q04DX002 (ip), vehicle: saline with Tween-80) 91 % of control.

Turning to `O=C1C[N+]2(CCCCC2)c2ccc(Cl)cc2N1`, the T/C is 87 % of control (dose: 6.25 mg/kg/injection, schedule: Q01DX009 (ip), vehicle: saline); 91 % of control (dose: 6.25 mg/kg/injection, schedule: Q04DX003 (ip), vehicle: saline); 92 % of control (dose: 12.5 mg/kg/injection, schedule: Q01DX009 (ip), vehicle: saline); 91 % of control (dose: 12.5 mg/kg/injection, schedule: Q04DX003 (ip), vehicle: saline); 95 % of control (dose: 25.0 mg/kg/injection, schedule: Q01DX009 (ip), vehicle: saline); 93 % of control under setting [8].

`Cc1cc(=S)cc(C)o1`: the T/C runs as follows: (dose: 100.0 mg/kg/injection, schedule: Q04DX002 (ip), vehicle: gum acacia) 93 % of control; (dose: 200.0 mg/kg/injection, schedule: Q04DX002 (ip), vehicle: gum acacia) 109 % of control.

For the compound `Clc1cccc(/C=C2\c3cc(Cl)ccc3-c3c(Cl)cc(Cl)cc32)c1`, the T/C reads like this: under setting [4], 96 % of control; (dose: 100.0 mg/kg/injection, schedule: Q01DX009 (ip), vehicle: Klucel (hydroxypropylcellulose) (HPC)) 106 % of control; under setting [9], 97 % of control; (dose: 200.0 mg/kg/injection, schedule: Q01DX001 (ip), vehicle: Klucel (hydroxypropylcellulose) (HPC)) 93 % of control; (dose: 200.0 mg/kg/injection, schedule: Q01DX009 (ip), vehicle: Klucel (hydroxypropylcellulose) (HPC)) 98 % of control; under setting [10], 101 % of control. The T/C (dose: 400.0 mg/kg/injection, schedule: Q01DX001 (ip), vehicle: Klucel (hydroxypropylcellulose) (HPC)) is 93 % of control; the T/C (dose: 400.0 mg/kg/injection, schedule: Q01DX009 (ip), vehicle: Klucel (hydroxypropylcellulose) (HPC)) was 98 % of control; the T/C (dose: 400.0 mg/kg/injection, schedule: Q04DX003 (ip), vehicle: Klucel (hydroxypropylcellulose) (HPC)) is 101 % of control.

On to `O=C(c1ccc([N+](=O)[O-])cc1)C1NC1c1ccccc1` (stereo not drawn), for which the T/C reads like this: (dose: 50.0 mg/kg/injection, schedule: Q01DX001 (ip), vehicle: carboxymethylcellulose (CMC)) 91 % of control; under setting [5], 97 % of control; under setting [6], 100 % of control; under setting [7], 91 % of control.

`C/C(=N\N(C)C)C(=O)OC(C)(C)C`: the T/C reads like this: under setting [11], 107 % of control; under setting [12], 98 % of control; under setting [13], 96 % of control.

Regarding `C[n+]1ccc2cc(N)c3c4ccccc4sc3c2c1`, the T/C (dose: 1.56 mg/kg/injection, schedule: Q01DX009 (ip), vehicle: saline with Tween-80) was 110 % of control; the T/C (dose: 3.12 mg/kg/injection, schedule: Q01DX009 (ip), vehicle: saline with Tween-80) is 100 % of control; the T/C (dose: 6.25 mg/kg/injection, schedule: Q01DX009 (ip), vehicle: saline with Tween-80) is 105 % of control; the T/C (dose: 12.5 mg/kg/injection, schedule: Q04DX003 (ip), vehicle: saline with Tween-80) was 105 % of control; the T/C (dose: 25.0 mg/kg/injection, schedule: Q04DX003 (ip), vehicle: saline with Tween-80) was 105 % of control; the T/C (dose: 50.0 mg/kg/injection, schedule: Q04DX003 (ip), vehicle: saline with Tween-80) was 115 % of control.

In the case of `CCCCS(=O)c1nc2ccccc2s1` (stereo not drawn), the T/C was 88 % of control (dose: 100.0 mg/kg/injection, schedule: Q04DX002 (ip), vehicle: other) and 91 % of control (dose: 200.0 mg/kg/injection, schedule: Q04DX002 (ip), vehicle: other).

For the compound `CCOC(=O)c1csc(/C=C/c2ccc([N+](=O)[O-])o2)n1`, the T/C under setting [9] is 89 % of control and the T/C under setting [10] was 92 % of control.

`CC[n+]1ccccc1CCC(=O)Nc1ccccc1`: the T/C reads like this: under setting [8], 97 % of control; (dose: 50.0 mg/kg/injection, schedule: Q04DX003 (ip), vehicle: saline) 92 % of control; under setting [11], 95 % of control.

Turning to `CC1(C)COP(Oc2ccccc2)OC1`, the T/C (dose: 100.0 mg/kg/injection, schedule: Q01DX009 (ip), vehicle: saline with Tween-80) is 100 % of control; the T/C under setting [1] is 107 % of control; the T/C (dose: 200.0 mg/kg/injection, schedule: Q01DX009 (ip), vehicle: saline with Tween-80) is 97 % of control; the T/C under setting [2] is 103 % of control; the T/C under setting [3] is 107 % of control.

As for `CC(=O)Nc1ccc(S(=O)(=O)NO)cc1`, the T/C is 96 % of control (dose: 50.0 mg/kg/injection, schedule: Q01DX009 (ip), vehicle: saline); 100 % of control (dose: 100.0 mg/kg/injection, schedule: Q01DX009 (ip), vehicle: saline); 100 % of control under setting [11]; 94 % of control (dose: 200.0 mg/kg/injection, schedule: Q01DX009 (ip), vehicle: saline); 103 % of control under setting [12]; 101 % of control under setting [13].

As to `COC(=O)c1cscc1C=O`, the T/C is, setting by setting: (dose: 100.0 mg/kg/injection, schedule: Q01DX001 (ip), vehicle: saline) 100 % of control; (dose: 100.0 mg/kg/injection, schedule: Q04DX003 (ip), vehicle: acetone) 102 % of control; under setting [11], 100 % of control; (dose: 200.0 mg/kg/injection, schedule: Q01DX001 (ip), vehicle: saline) 104 % of control; (dose: 200.0 mg/kg/injection, schedule: Q04DX003 (ip), vehicle: acetone) 95 % of control; under setting [12], 94 % of control. The T/C is 93 % of control (dose: 400.0 mg/kg/injection, schedule: Q01DX001 (ip), vehicle: saline); 93 % of control (dose: 400.0 mg/kg/injection, schedule: Q04DX003 (ip), vehicle: acetone); 93 % of control under setting [13].
